What all share (test): NCI tumour cell line growth inhibition, 48 h
Test [1] deals with DMS 114 small cell lung.
The test system of test [2] is XF 498 CNS.
The subject of test [3] is SNB-78 CNS.
In test [4] the test system is LXFL 529 NSCLC.
Test [5] deals with P388/ADR leukemia.
In test [6] the test system is P388 leukemia.
For test [7], the system named is SN12K1 renal.

Structures are written as SMILES.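 These data come from cells grown in 96-well plates and exposed to compound for 48 hours at five concentrations. At the TGI there is no net growth.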 Where only a bound is given, the exact number is not on record here.

`Nc1ccccc1C(=O)C(Br)C(Br)c1ccc2c(c1)OCO2` (stereo unspecified): the TGI in test [1] worked out at 40.2 µM; in test [2], 34 µM; in test [3] it was 81 µM; in test [4], 46 µM.

Consider `c1ccc2c(c1)CCCC/C2=N/OCC1CO1` (stereo unspecified), for which the TGI in test [1] was more than 100 µM; in test [2] it was 77.3 µM; in test [3], more than 100 µM; in test [4], more than 100 µM.

As for `COc1cc(C2c3cc4c(cc3[C@@H](Nc3ccc5c(c3)OCO5)C3COC(=O)[C@H]23)OCO4)cc(OC)c1O` (stereo partly specified), the TGI is 16.7 µM in test [2], 0.71 µM in test [5], 0.393 µM in test [6] and 5.82 µM in test [7].

Take `CSc1nc2c(ncn2C2OC(CO)C(O)C(O)C2O)c(=O)[nH]1` (stereo unspecified): the TGI in test [1], in test [2], in test [3], in test [6] and in test [7] was more than 100 µM each time.

In the case of `C=C1C(=O)C23C(O)CC4C5(C)CCCC4(C(O)OC5)C2C(OC(C)=O)CC1C3O` (stereo unspecified), the results for the TGI in test [1], in test [3] and in test [4] were 22.2 µM, 33.9 µM and 12.2 µM, respectively.

In test [4], `COc1ccc(/C=N/n2c(C)nc3c(sc(=S)n3-c3ccccc3)c2=O)cc1` had a TGI of more than 100 µM.

(Values after PubChem BioAssay (NCI).)
